In patent US8314077B2 (priority 1996, dated 2012):
Read-outs that look alike come from different tables or passages of the source.

Assays:
CNS SF-539 = test: cells; type: cell-based; details: for TGI: concentration at which PG is 0, CNS SF-539
Description: (§1) Conjugates 1 and 2 were sent to the United States National Cancer Institute (NCI) for screening in the NCI's anticancer screening program. The conjugates were provided in ethanol (approximately 40 mg analog/2 ml ethanol). […] Instructions were provided to store at 4° C. and to open the vials only when ready for immediate experimental use. Instructions also were provided to use the ethanol solutions containing the conjugates directly or to dissolve the analogs further in DMSO (dimethylsulfoxide) at appropriate concentrations, with vortexing if necessary for adequate dispersal.
(§2) The activities of conjugates 1 and 2 were tested against 57 cancer cell lines. […] To understand the data, reference is made to the guides provided by the NCI, excerpted as follows:
(§3) The Calculated Measurement of Effect: Percentage Growth (PG)
(§4) The measured effect of the compound on a cell line is currently calculated according to one or the other of the following two expressions:
(§5) If (Mean ODtext−Mean ODtzero)≧0, then PG=100×(Mean ODtest−Mean ODtzero)/(Mean ODctrl−Mean Odtzero)
(§6) If (Mean ODtest−Mean ODtzero)<0, then PG=100×(Mean ODtest−Mean Odtzero)/Mean Odtzero
(§7) Where: • Mean ODtzero=The average of optical density measurements of SRB-derived color just before exposure of cells to the test compound. • Mean ODtest=The average of optical density measurements of SRB-derived color after 48 hours exposure of cells to the test compound. • Mean ODctrl=The average of optical density measurements of SRB-derived color after 48 hours with no exposure of cells to the test compound.
(§8) Experimental data was collected against each cell line. . . . . Each concentration is expressed as the log10 (molar or μg/ml) . . . . The response parameters GI50, TGI, and LC50 are interpolated values representing the concentrations at which the PG is +50, 0, and −50, respectively. Sometimes these response parameters cannot be obtained by interpolation. If, for instance, all of the PGs in a given row exceed +50, then none of the three parameters can be obtained by interpolation. In such a case, the value given for each response parameter is the highest concentration tested. This practice is extended similarly to the other possible situations where a response parameter cannot be obtained by interpolation.
(§9) The dose-response curve page of the data package is created by plotting the PGs against the log10 of the corresponding concentration for every cell line. The cell line curves are grouped by subpanel. Horizontal lines are provided at the PG values of +50, 0, and −50. The concentrations corresponding to points where the curves cross these lines are the GI50, TGI and LC50, respectively.

CNSSF 268 = test: cells; type: cell-based
Description: as §1, §2, §3, §4, §5, §6, §7, §8, §9

57 cancer cell lines = type: cell-based; details: for potency relative to Taxol: many cell lines tested; for pattern of activity versus Taxol (NCI statistical analysis): statistical analysis designed by the NCI
Description: Conjugates 1 and 2 were sent to the United States National Cancer Institute (NCI) for screening in the NCI's anticancer screening program. The conjugates were provided in ethanol (approximately 40 mg analog/2 ml ethanol). The conjugates were sealed in vials under argon to avoid exposure of the conjugates to oxygen because the conjugates were believed to be sensitive to oxygen. Instructions were provided to store at 4° C. and to open the vials only when ready for immediate experimental use. Instructions also were provided to use the ethanol solutions containing the conjugates directly or to dissolve the analogs further in DMSO (dimethylsulfoxide) at appropriate concentrations, with vortexing if necessary for adequate dispersal.
as §2, §3, §4, §5, §6, §7, §8, §9

[1] = test system: leukemia cancer cell lines; type: cell-based; details: six lines for the conjugates, four lines for Taxol; FIGS. 1, 10 and 19
Description: as §1, §2, §3, §4, §5, §6, §7, §8, §9

[2] = test system: non-small cell lung cancer lines H522 and H460; type: cell-based
Description: as §1, §2, §3, §4, §5, §6, §7, §8, §9

[3] = in vivo; cited from earlier work
CNSU251 = type: cell-based
Description: as §1, §2, §3, §4, §5, §6, §7, §8, §9

[4] = test system: MDA-N and MDA-MB-435 breast cancer cell lines; type: cell-based; details: all concentrations tested
Description: as §1, §2, §3, §4, §5, §6, §7, §8, §9

CC(=O)O[C@H]1C(=O)[C@@]2(C)[C@H]([C@H](OC(=O)c3ccccc3)[C@]3(O)C[C@H](OC(=O)[C@H](O)[C@@H](NC(=O)c4ccccc4)c4ccccc4)C(C)=C1C3(C)C)[C@]1(OC(C)=O)CO[C@@H]1C[C@@H]2O [Taxol, paclitaxel, reference compound]
TGI (CNS SF-539; 48 hours exposure): −6.95 log10 (molar or μg/ml) | GI50 (CNS SF-539; concentration at which PG is +50, 48 hours exposure, CNS SF 539): −7.52 log10 (molar or μg/ml) | GI50 (CNSSF 268; concentration at which PG is +50, 48 hours exposure, CNSSF 268): less than −10.0 log10 (molar or μg/ml) | average GI50 across all cell lines tested (57 cancer cell lines; average over cell lines, −10 used where Taxol was active at −10.0): at least −9.19 log10 (molar or μg/ml) | effectiveness against leukemia cell lines [1]: somewhat effective | difference in effectiveness, H522 versus H460, at TGI [2]: about 3 logs | entry into the brain [3]: does not get into the brain

CC/C=C\C/C=C\C/C=C\C/C=C\C/C=C\C/C=C\CCC(=O)O[C@H]1C[C@H]2OC[C@@]2(OC(C)=O)[C@H]2[C@H](OC(=O)c3ccccc3)[C@]3(O)CC(OC(=O)C(O)[C@@H](NC(=O)c4ccccc4)c4ccccc4)C(C)=C([C@@H](OC(C)=O)C(=O)[C@]12C)C3(C)C (stereo partly shown) [conjugate 2]
GI50 (CNS SF-539; CNSSF-539, 48 h): 2.75 µM | TGI (CNS SF-539; 48 hours exposure): −5.53 log10 (molar or μg/ml) | GI50 (CNSSF 268; 48 h): 5.25 µM | potency relative to Taxol (57 cancer cell lines): one thousand to ten thousand times less potent than Taxol | pattern of activity versus Taxol (NCI statistical analysis) (57 cancer cell lines): statistically different | effectiveness at TGI against CNSU251 relative to other CNS cell lines (CNSU251): very effective | relative activity toward MDA-N versus MDA-MB-435 [4]: more effective against MDA-N than MDA-MB-435 | effectiveness against leukemia cell lines [1]: not very effective | relative effectiveness against H460 versus H522 at TGI [2]: slightly more effective against H460 than H522

CC/C=C\C/C=C\C/C=C\C/C=C\C/C=C\C/C=C\CCC(=O)OC(C(=O)OC1C[C@@]2(O)[C@@H](OC(=O)c3ccccc3)[C@@H]3[C@]4(OC(C)=O)CO[C@@H]4C[C@H](O)[C@@]3(C)C(=O)[C@H](OC(C)=O)C(=C1C)C2(C)C)[C@@H](NC(=O)c1ccccc1)c1ccccc1 (stereo partly shown) [conjugate 1]
GI50 (CNS SF-539; CNSSF-539, concentration at which PG is +50, 48 hours exposure, CNS SF 539, read-out: GI50 (converted)): 0.603 µM | TGI (CNS SF-539; 48 hours exposure): −5.13 log10 (molar or μg/ml) | GI50 (CNSSF 268; concentration at which PG is +50, 48 hours exposure, CNSSF 268, read-out: GI50 (converted)): 4.37 µM | potency relative to Taxol (57 cancer cell lines): one thousand to ten thousand times less potent than Taxol | pattern of activity versus Taxol (NCI statistical analysis) (57 cancer cell lines): statistically different | effectiveness at TGI against CNSU251 relative to other CNS cell lines (CNSU251): most effective | relative activity toward MDA-N versus MDA-MB-435 [4]: more effective against MDA-N than MDA-MB-435 | effectiveness against leukemia cell lines [1]: not very effective | relative effectiveness against H460 versus H522 at TGI [2]: slightly more effective against H460 than H522
